From patent publication US8541418B2, “Inhibitors of polo-like kinase” (Elan Pharmaceutical, Inc., priority 2009, dated 2013)
Where two headings read alike, the source gives them in different places.

Assays:
Format in all cases: biochemical
[1] = biological target: PLK1 (Homo sapiens, UniProt P53350); experiment: PLK TR-FRET peptide assay, PLK1; settings: GST-PLK1, 60 min reaction
[2] = biological target: PLK2 (Homo sapiens, UniProt Q9NYY3); experiment: PLK TR-FRET peptide assay, PLK2; settings: for IC50: PLK TR-FRET peptide assay, GST-PLK2, 60 min reaction, read-out: Plk2 IC50; for relative PLK2 activity of the enantiomers: compared with the opposite enantiomer
[3] = biological target: PLK3 (Homo sapiens, UniProt Q9H4B4); experiment: PLK TR-FRET peptide assay, PLK3
[4] = GST-PLK3, 15 min reaction, read-out: Plk3 IC50
[5] = read-out: Plk3 IC50, GST-PLK3, 15 min reaction

Chain of PLK2 (Q9NYY3 whole entry): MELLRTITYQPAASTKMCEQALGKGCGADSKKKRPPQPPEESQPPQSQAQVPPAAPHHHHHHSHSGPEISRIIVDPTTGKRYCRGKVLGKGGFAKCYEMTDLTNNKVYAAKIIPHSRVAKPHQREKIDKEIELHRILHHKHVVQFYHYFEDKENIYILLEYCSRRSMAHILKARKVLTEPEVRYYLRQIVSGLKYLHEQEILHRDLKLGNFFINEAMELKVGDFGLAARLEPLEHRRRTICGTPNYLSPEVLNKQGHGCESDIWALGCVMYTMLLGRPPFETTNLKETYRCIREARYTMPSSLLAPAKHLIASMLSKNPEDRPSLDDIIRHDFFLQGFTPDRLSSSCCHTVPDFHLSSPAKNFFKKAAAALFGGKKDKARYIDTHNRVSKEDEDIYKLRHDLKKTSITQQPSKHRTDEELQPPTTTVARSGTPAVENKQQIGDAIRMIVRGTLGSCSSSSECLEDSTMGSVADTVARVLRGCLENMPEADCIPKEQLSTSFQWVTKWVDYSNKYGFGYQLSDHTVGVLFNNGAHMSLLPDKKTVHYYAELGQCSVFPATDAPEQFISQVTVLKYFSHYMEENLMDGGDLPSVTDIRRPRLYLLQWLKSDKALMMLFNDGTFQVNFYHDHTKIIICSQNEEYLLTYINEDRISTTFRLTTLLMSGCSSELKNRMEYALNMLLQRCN
Chain of PLK1 (P53350 whole entry): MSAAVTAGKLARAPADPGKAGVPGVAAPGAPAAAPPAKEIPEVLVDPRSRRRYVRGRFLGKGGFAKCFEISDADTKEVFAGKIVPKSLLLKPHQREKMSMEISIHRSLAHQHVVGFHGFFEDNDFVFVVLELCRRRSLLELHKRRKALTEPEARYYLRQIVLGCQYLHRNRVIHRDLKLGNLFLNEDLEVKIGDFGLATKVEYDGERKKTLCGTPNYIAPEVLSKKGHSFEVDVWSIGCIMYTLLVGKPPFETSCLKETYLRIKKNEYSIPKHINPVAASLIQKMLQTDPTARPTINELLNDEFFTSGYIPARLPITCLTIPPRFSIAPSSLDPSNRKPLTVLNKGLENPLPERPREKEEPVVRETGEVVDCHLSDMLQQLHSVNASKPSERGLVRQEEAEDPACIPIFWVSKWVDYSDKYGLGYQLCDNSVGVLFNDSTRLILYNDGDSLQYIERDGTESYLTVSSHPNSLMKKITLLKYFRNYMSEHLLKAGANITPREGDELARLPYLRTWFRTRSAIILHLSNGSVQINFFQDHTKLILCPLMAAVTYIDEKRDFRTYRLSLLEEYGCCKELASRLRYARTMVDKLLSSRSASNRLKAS
Chain of PLK3 (Q9H4B4 whole entry): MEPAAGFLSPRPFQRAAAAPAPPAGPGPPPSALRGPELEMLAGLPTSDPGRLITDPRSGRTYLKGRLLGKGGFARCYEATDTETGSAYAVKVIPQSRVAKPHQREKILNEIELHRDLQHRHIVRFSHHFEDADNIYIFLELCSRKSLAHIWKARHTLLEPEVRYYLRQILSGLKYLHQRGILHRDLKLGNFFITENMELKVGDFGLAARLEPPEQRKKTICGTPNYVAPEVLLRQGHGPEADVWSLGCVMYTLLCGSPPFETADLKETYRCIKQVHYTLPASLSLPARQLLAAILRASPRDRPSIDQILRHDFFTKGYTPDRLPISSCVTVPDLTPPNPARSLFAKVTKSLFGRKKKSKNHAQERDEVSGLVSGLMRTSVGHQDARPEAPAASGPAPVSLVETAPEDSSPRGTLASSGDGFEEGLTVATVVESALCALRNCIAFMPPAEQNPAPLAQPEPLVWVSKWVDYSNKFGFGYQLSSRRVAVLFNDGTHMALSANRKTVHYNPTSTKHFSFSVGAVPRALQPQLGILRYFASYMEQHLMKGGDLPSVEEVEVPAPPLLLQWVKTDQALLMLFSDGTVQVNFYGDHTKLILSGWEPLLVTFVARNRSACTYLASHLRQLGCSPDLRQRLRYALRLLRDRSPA

IC50 [1] [µM] | IC50 [2] [µM] | relative PLK2 activity of the enantiomers [2] | Compound | further results
10 to 50 | 1 to 10 |  | CC[C@@H]1C(=O)N(C)c2cnc(N3CCCC3)nc2N1C1CCCC1 [Example 1, (R)-8-cyclopentyl-7-ethyl-5-methyl-2-(pyrrolidin-1-yl)-7,8-dihydropteridin-6(5H)-one] | 
10 to 50 | 10 to 50 |  | CC[C@@H]1C(=O)N(C)c2cnc(N3CCCCC3)nc2N1C1CCCC1 [Example 2, (R)-8-cyclopentyl-7-ethyl-5-methyl-2-(piperidin-1-yl)-7,8-dihydropteridin-6(5H)-one] | 
< 1 | < 1 |  | CC[C@@H]1C(=O)N(C)c2cnc(-n3cnc4ccccc43)nc2N1C1CCCC1 [Example 4, (R)-2-(1H-benzo[d]imidazol-1-yl)-8-cyclopentyl-7-ethyl-5-methyl-7,8-dihydropteridin-6(5H)-one] | 
< 1 | < 1 |  | CC[C@@H]1C(=O)N(C)c2cnc(-c3ccc[nH]3)nc2N1C1CCCC1 [Example 6, (R)-8-cyclopentyl-7-ethyl-5-methyl-2-(1H-pyrrol-2-yl)-7,8-dihydropteridin-6(5H)-one] | 
1 to 10 | 1 to 10 |  | CC[C@@H]1C(=O)N(C)c2cnc(-c3ccccn3)nc2N1C1CCCC1 [Example 8, (R)-8-cyclopentyl-7-ethyl-5-methyl-2-(pyridin-2-yl)-7,8-dihydropteridin-6(5H)-one] | 
< 1 | 1 to 10 |  | CC[C@@H]1C(=O)N(C)c2cnc(-c3cc4ccccc4[nH]3)nc2N1C1CCCC1 [Example 9, (R)-8-cyclopentyl-7-ethyl-2-(1H-indol-2-yl)-5-methyl-7,8-dihydropteridin-6(5H)-one] | 
10 to 50 | 1 to 10 |  | CC[C@@H]1C(=O)N(C)c2cnc(-c3cccc4cc[nH]c34)nc2N1C1CCCC1 [Example 10, (R)-8-cyclopentyl-7-ethyl-2-(1H-indol-7-yl)-5-methyl-7,8-dihydropteridin-6(5H)-one] | 
> 50 | 10 to 50 |  | CC[C@@H]1C(=O)N(C)c2cnc(-c3cccc4cccnc34)nc2N1C1CCCC1 [Example 11, (R)-8-cyclopentyl-7-ethyl-5-methyl-2-(quinolin-8-yl)-7,8-dihydropteridin-6(5H)-one] | 
1 to 10 | 1 to 10 |  | CC[C@@H]1C(=O)N(C)c2cnc(-c3ccccc3)nc2N1C1CCCC1 [Example 12, (R)-8-cyclopentyl-7-ethyl-5-methyl-2-phenyl-7,8-dihydropteridin-6(5H)-one] | 
< 1 | < 1 |  | CC[C@@H]1C(=O)N(C)c2cnc(-c3ccnc(OC)c3)nc2N1C1CCCC1 [Example 15, (R)-8-cyclopentyl-7-ethyl-2-(2-methoxypyridin-4-yl)-5-methyl-7,8-dihydropteridin-6(5H)-one] | 
> 50 | > 50 |  | CN1C(=O)[C@H]2CCCCN2c2nc(-n3ccnc3)ncc21 [Example 24, (R)-2-(1H-imidazol-1-yl)-5-methyl-7,8,9,10-tetrahydro-5H-pyrido[2,1-h]pteridin-6(6aH)-one] | 
> 50 | 10 to 50 |  | CN1C(=O)[C@H]2CCCCN2c2nc(-c3ccncc3)ncc21 [Example 25, (R)-5-methyl-2-(pyridin-4-yl)-7,8,9,10-tetrahydro-5H-pyrido[2,1-h]pteridin-6(6aH)-one] | 
> 50 | > 50 |  | CC[C@@H]1C(=O)N(C)c2cnc(-n3cc[n+](C)c3C)nc2N1C1CCCC1 [Example 28, (R)-1-(8-cyclopentyl-7-ethyl-5-methyl-6-oxo-5,6,7,8-tetrahydropteridin-2-yl)-2,3-dimethyl-1H-imidazol-3-ium] | 
> 50 | > 50 |  | CCOC(=O)c1cnn(-c2ncc3c(n2)N(C2CCCC2)[C@H](CC)C(=O)N3)c1 [Example 30, (R)-ethyl 1-(8-cyclopentyl-7-ethyl-6-oxo-5,6,7,8-tetrahydropteridin-2-yl)-1H-pyrazole-4-carboxylate] | 
< 1 |  |  | CC[C@@H]1C(=O)N(C)c2cnc(-c3ccccc3-c3ccccc3)nc2N1C1CCCC1 [Example 70, (R)-2-(biphenyl-2-yl)-8-cyclopentyl-7-ethyl-5-methyl-7,8-dihydropteridin-6(5H)-one] | IC50 [3, 4]: < 1 µM
10 to 50 |  |  | CC[C@@H]1C(=O)N(C)c2cnc(-c3ccncc3CNC(=O)OC(C)(C)C)nc2N1C1CCCC1 [Example 106, (R)-tert-butyl (4-(8-cyclopentyl-7-ethyl-5-methyl-6-oxo-5,6,7,8-tetrahydropteridin-2-yl)pyridin-3-yl)methylcarbamate] | IC50 [3, 4]: > 50 µM

IC50 [1] [µM] | IC50 [2] [µM] | relative PLK2 activity of the enantiomers [2] | Compound | further results
1 to 10 |  |  | CC[C@@]12CCCN1c1nc(-n3ccnc3-c3cccc(Br)c3)ncc1N(C)C2=O [Example 252, (S)-2-(2-(3-bromophenyl)-1H-imidazol-1-yl)-6a-ethyl-5-methyl-6a,7,8,9-tetrahydropyrrolo[2,1-h]pteridin-6(5H)-one] | IC50 [3, 4]: 10 to 50 µM
 |  |  | CCC1(C)C(=O)N(C)c2cnc(-n3ccnc3-c3ccc(F)cc3)nc2N1CCC(F)(F)F (stereo not drawn) [Example 279, 7-ethyl-2-(2-(4-fluorophenyl)-1H-imidazol-1-yl)-5,7-dimethyl-8-(3,3,3-trifluoropropyl)-7,8-dihydropteridin-6(5H)-one] | IC50 [3, 5]: 10 to 50 µM
 |  |  | CC(C)N1c2nc(-n3ccnc3-c3ccc(F)cc3)ncc2N(C)C(=O)C12CCC2 [Example 290, 2′-(2-(4-fluorophenyl)-1H-imidazol-1-yl)-8′-isopropyl-5′-methyl-5′H-Spiro[cyclobutane-1,7′-pteridin]-6′(8′H)-one] | IC50 [3, 5]: 10 to 50 µM
 | < 1 |  | CCC1C(=O)N(C)c2cnc(-n3ccnc3-c3ccc(F)cc3)nc2N1c1cccc(C#N)c1 (stereo not drawn) [Example 332] | IC50 [3, 4]: 1 to 10 µM
 |  | more active compound | CC[C@@]12COCCN1c1nc(-c3cn[nH]c3-c3nccs3)ncc1N(C)C2=O [Example 344, (S)-6a-ethyl-5-methyl-2-(5-(thiazol-2-yl)-1H-pyrazol-4-yl)-6a,7,9,10-tetrahydro-[1,4]oxazino[3,4-h]pteridin-6(5H)-one] | 
 |  | more active compound | CC[C@@]12COCCN1c1nc(-c3snnc3-c3ccccc3)ncc1N(C)C2=O [Example 368, (S)-6a-ethyl-5-methyl-2-(4-phenyl-1,2,3-thiadiazol-5-yl)-6a,7,9,10-tetrahydro-[1,4]oxazino[3,4-h]pteridin-6(5H)-one] | 
 |  | more active compound | CC[C@@]12CN(C)CCN1c1nc(-n3ccnc3-c3ccccc3)ncc1N(C)C2=O [Example 374, (S)-6a-ethyl-5,8-dimethyl-2-(2-phenyl-1H-imidazol-1-yl)-7,8,9,10-tetrahydro-5H-pyrazino[2,1-h]pteridin-6(6aH)-one] | 
 |  | more active compound | CC[C@@]12COCCN1c1nc(-n3ccnc3-c3ccc(F)cc3F)ncc1N(C)C2=O [Example 376, (S)-2-(2-(2,4-difluorophenyl)-1H-imidazol-1-yl)-6a-ethyl-5-methyl-6a,7,9,10-tetrahydro-[1,4]oxazino[3,4-h]pteridin-6(5H)-one] | 
 |  | more active compound | CC[C@@]12COCCN1c1nc(-n3ccnc3-c3ccc(F)cn3)ncc1N(C)C2=O [Example 380, (S)-6a-ethyl-2-(2-(5-fluoropyridin-2-yl)-1H-imidazol-1-yl)-5-methyl-6a,7,9,10-tetrahydro-[1,4]oxazino[3,4-h]pteridin-6(5H)-one] | 
 |  | more active compound | CC[C@@]12COCCN1c1nc(-n3ccnc3-c3nccs3)ncc1N(C)C2=O [Example 387, (S)-6a-ethyl-5-methyl-2-(2-(thiazol-2-yl)-1H-imidazol-1-yl)-6a,7,9,10-tetrahydro-[1,4]oxazino[3,4-h]pteridin-6(5H)-one] | 
 |  | more active compound | CC[C@@]12COCCN1c1nc(-c3ccncc3-c3ccccc3)ncc1N(C)C2=O [Example 394, (S)-6a-ethyl-5-methyl-2-(3-phenylpyridin-4-yl)-6a,7,9,10-tetrahydro-[1,4]oxazino[3,4-h]pteridin-6(5H)-one] | 
 |  | more active compound | CC[C@@]12COCCN1c1nc(-c3snnc3-c3ccc(F)cc3F)ncc1N(C)C2=O [Example 397, (S)-2-(4-(2,4-difluorophenyl)-1,2,3-thiadiazol-5-yl)-6a-ethyl-5-methyl-6a,7,9,10-tetrahydro-[1,4]oxazino[3,4-h]pteridin-6(5H)-one] | 
 |  | more active compound | CC[C@@H]1C(=O)N(C)c2cnc(-n3ccnc3-c3ccc(F)cc3)nc2N1c1ccn(C)n1 [Example 407, (R)-7-ethyl-2-(2-(4-fluorophenyl)-1H-imidazol-1-yl)-5-methyl-8-(1-methyl-1H-pyrazol-3-yl)-7,8-dihydropteridin-6(5H)-one] | 
 |  | more active compound | CC[C@@H]1C(=O)N(C)c2cnc(-n3ccnc3-c3ccccc3)nc2N1c1cnn(C)c1 [Example 409, (R)-7-ethyl-5-methyl-8-(1-methyl-1H-pyrazol-4-yl)-2-(2-phenyl-1H-imidazol-1-yl)-7,8-dihydropteridin-6(5H)-one] | 
 |  | more active compound | CC[C@@]12COCCN1c1nc(-c3cn[nH]c3-c3ccc(F)cc3F)ncc1N(C)C2=O [Example 411, (S)-2-(5-(2,4-difluorophenyl)-1H-pyrazol-4-yl)-6a-ethyl-5-methyl-6a,7,9,10-tetrahydro-[1,4]oxazino[3,4-h]pteridin-6(5H)-one] | 
 |  | more active compound | CC[C@@]12COCCN1c1nc(-n3ccnc3-c3ccccc3)ncc1NC2=O [Example 418, (S)-6a-ethyl-2-(2-phenyl-1H-imidazol-1-yl)-6a,7,9,10-tetrahydro-[1,4]oxazino[3,4-h]pteridin-6(5H)-one] | 

Compound | IC50 [1] [µM] | IC50 [2] [µM] | relative PLK2 activity of the enantiomers [2] | further results
CC[C@@H]1C(=O)N(C)c2cnc(-n3cc(C(=O)NC)cn3)nc2N1C1CCCC1 [Example 40, (R)-1-(8-cyclopentyl-7-ethyl-5-methyl-6-oxo-5,6,7,8-tetrahydropteridin-2-yl)-N-methyl-1H-pyrazole-4-carboxamide] |  | 1 to 10 |  | 
